Like-named read-outs stand apart in the source and are kept apart here.
How the values were obtained:
[1] = ester bond, toluene, 2 steps
[2] = system: human ovarian carcinoma cells (1A9); experiment: Antiproliferative assay (GI50, MTS); type: cell-based; conditions: for antiproliferative potency / GI50 values (in words): Table 1 (1A9 and mutant lines)
Description: (§1) Representative analogs were examined for their antiproliferative activities against human ovarian carcinoma 1A9 cells and their paclitaxel-resistant mutants, 1A9/Ptx10 and 1A9/Ptx22.
[…] Cells were maintained in RPMI medium with 10% FBS in it, plated in tissue culture plates, and allowed to grow for 48-72 h before transferring them into 96-well plates. Cells were allowed to attach and grow for 48 h in 96-well plates after which they were treated with either control (DMSO) or drug in triplicate/quadruplicate. Cells were incubated with the compounds for 72 h. Cells were treated with MTS reagent before reading the plate in a Dynamax plate reader for determining the cell number. The fifty percent growth inhibition values (GI50 values) were calculated for the compounds against all the three cell lines.

[3] = system: 1A9/Ptx10 (Phe270 −> Val) β-tubulin mutant cells; experiment: Antiproliferative assay (GI50, MTS), paclitaxel-resistant clone; type: cell-based, human; conditions: for fold-resistance: 1A9/Ptx10 versus parental 1A9
Description: as §1
(§2) The effects of dictyostatin and its analogs on growth inhibition of parental ([…]) and paclitaxel-resistant (1A9/Ptx10 and Ptx22) ovarian adenocarcinoma cell lines were evaluated following the antiproliferative assay protocol as described earlier (Minguez et al., 2003; Choy et al., 2003; Lazo et al., 2001). Cells were maintained in RPMI medium with 10% FBS in it, plated in tissue culture plates, and allowed to grow for 48-72 h before transferring them into 96-well plates. Cells were allowed to attach and grow for 48 h in 96-well plates after which they were treated with either control (DMSO) or drug in triplicate/quadruplicate. Cells were incubated with the compounds for 72 h. Cells were treated with MTS reagent before reading the plate in a Dynamax plate reader for determining the cell number. The fifty percent growth inhibition values (GI50 values) were calculated for the compounds against all the three cell lines.

[4] = system: 1A9/Ptx22 (Ala364 −> Thr) β-tubulin mutant cells; experiment: as above; type: cell-based, human; conditions: for fold-resistance: 1A9/Ptx22 versus parental 1A9
Description: as §1, §2

[5] = system: T1, Bovine brain tubulin; experiment: Pelleting assay (tubulin assembly EC50 determination); type: biochemical; conditions: tubulin 10 μM in 0.2 M MSG, 15 min at 20° C.; for EC50: concentration required to polymerize 50% of tubulin, read-out: EC50 (μM) ± SD (N)
T1 construct: Bovine brain tubulin (10 μM) in 0.2 M MSG, 15 min at 20° C
Description: Dictyostatin and representative analogs were evaluated in a quantitative assay for their ability to promote tubulin polymerization. […] When the percent polymer formed was determined in the reactions, a comparison of the activities of all the analogs could be made.
The assay was performed under three different reaction conditions following the procedure reported earlier (Gapud et al., 2004). Reaction condition 1 included 0.2 M monosodium glutamate (MSG), 10 μM tubulin, 5% DMSO and varying concentrations of test agents. Reaction condition 2 included 0.8 M MSG, 400 μM GTP, 10 μM tubulin, 5% DMSO, and varying concentrations of test agents. Reaction condition 3 had 0.6 M MSG, 200 μM GTP, and 10 μM tubulin, and 5% DMSO, and varying concentrations of the test agents. The experimental protocol for all the three reaction conditions was the following. The reaction mixtures were incubated at room temperature (20-22° C.) for 15 min and spun for 10 min at 14,000 rpm in an Eppendorf microtube centrifuge. Aliquots of the supernatants were removed and assayed for protein content by the method of Lowry.

[6] = system: microtubules (tubulin polymer); experiment: Radiolabeled ligand binding assays; conditions: test agent 4 μM; radiolabel 4.0 μM; 37° C.
Description: The abilities of test agents to inhibit the binding of radiolabeled forms of the microtubule stabilizers paclitaxel, discodermolide and epothilone B from tubulin polymer were determined.
[^3H]Paclitaxel, [^3H]discodermolide and [^14C]epothilone B solutions were prepared as 125 μM stock solutions in 50% DMSO. Radiolabeled compound (final concentration, 4.0 μM) and test agents at final concentrations noted in the text and tables were mixed in 50 μL of 4:1 (v/v) 0.75 M aqueous MSG/DMSO and warmed to 37° C. Meanwhile, a reaction mixture containing 0.75 M MSG, 2.5 μM tubulin, and 25 μM ddGTP was prepared and incubated at 37° C. for 30 min to form microtubuless. A 200 μL aliquot of the microtubule mixture was added to the drug mixtures, and incubation continued for 30 min at 37° C. Reaction mixtures were centrifuged in an Eppendorf 5417C centrifuge at 14,000 rpm for 20 min at room temperature. Radiolabel in the supernatants (100 μL) was determined by scintillation spectrometry.

[7] = system: HeLa cells; experiment: Multiparameter fluorescence high information content analysis of cellular effects; type: cell-based; set-up: unit not given here; conditions: 24 h treatment; for Minimum detectable cellular change, Nuclear condensation: Hoechst 33342
Description: HeLa cells were plated on collagen-coated 384-well microtiter plates, allowed to attach, then treated for 24 h with test agents. Test agent concentrations began at 1 μM, and two-fold dilutions were made to levels below 1 nM. After the treatment period, the cells were fixed with formalin and their chromatin stained with Hoechst 33342. Cells were permeabilized and treated with primary antibodies for α-tubulin and phosphohistone H3, and then with fluorophore-labeled secondary antibodies. The three fluorescent channels were then examined on an ArrayScan II, which gives quantitative pixel distribution and density information in each channel on a per cell basis.
HeLa cells growing at log phase were trypsinized and plated in 40 μL at a density of 7,000-8,000 cells per well in calf skin collagen I-coated 384-well plates (Falcon #3962; Fisher Scientific). Cells were exposed to test agents or 0.5% DMSO within 2-8 h of plating. Concentrated DMSO stock solutions of all test agents were diluted into solutions of HBSS medium plus 10% FBS and added to the microplate wells (10 μL per well), using an automated liquid handling system (Biomek® 2000; Beckman-Coulter, Inc.) to provide a serial 2-fold dilution of each test agent. The cells were incubated in the presence of test agents for 24 h. At the end of the incubation, the medium was removed and replaced with HBSS containing 4% formaldehyde and 10 μg/mL Hoechst 33342 (25 μL/well) to fix the cells and fluorescently label their chromatin. After incubation at room temperature for 20-30 min, the solution was removed from each well and replaced with HBSS (100 μL/well). Further reagent additions were made to the microplates using the Biomek 2000. After removing the HBSS from each well, cells were permeabilized for 5 min at room temperature with 0.5% (w/w) Triton X-100 in HBSS (10 μL/well). This step extracts a fraction of the soluble cellular components, including soluble tubulin. The wells were washed with HBSS (100 μL/well), followed by addition of a primary antibody solution containing mouse anti-α-tubulin (1:3000) and rabbit anti-phosphohistone H3 (1:500) in HBSS (10 μL/well). After 1 h at room temperature, the wells were washed with HBSS as above, followed by the addition of a secondary antibody solution containing fluorescein-5-isothiocyanate (FITC)-labeled donkey anti-mouse (1:300) and Cy3-labeled donkey anti-rabbit (1:300) antibodies diluted in HBSS (10 μL/well). After 1 h at room temperature, the wells were washed as above, and HBSS was added (100 μL/well). The plates were placed in an ArrayScan® HCS Reader with the Target Activation BioApplication Software coupled to Cellomics® Store and the vHCS™ Discovery Toolbox (Cellomics, Inc.) to analyze images. Briefly, the instrument was used to scan multiple optical fields, each with multiparameter fluorescence, within a subset of the wells of the 384-well microplate. The BioApplication software produced multiple numerical feature values, such as subcellular object intensities, shapes, and location for each cell within an optical field. […] A nuclear mask was generated from Hoechst 33342-stained nuclei, and object identification thresholds and shape parameters were set such that the algorithm identified over 90% of the nuclei in each field. Objects that touched each other or the edge of the image were excluded from the analysis. Tubulin mass was defined as the average green (FITC) pixel intensity in an area defined by the Hoechst-defined nuclear mask. This cytoplasmic area around the nucleus contains cytoskeletal components is a region from which sensitive measurements of cytoplasmic characteristics can be made.

| SMILES | antiproliferative potency / GI50 values (in words) [2] | fold-resistance [3] | fold-resistance [4] | % Tubulin polymerized by 50 μM test agent [5] | EC50 [5] | Percent inhibition of radiolabel from microtubules, [3H]Paclitaxel [6] | Minimum detectable cellular change, Phosphohistone H3 [7] | Minimum detectable cellular change, Tubulin polymer intensity [7] | Minimum detectable cellular change, Nuclear condensation [7] | other results |
| --- | --- | --- | --- | --- | --- | --- | --- | --- | --- | --- |
| C=C/C=C\[C@H](C)[C@@H]1OC(=O)/C=C\C=C\[C@@H](C)[C@@H](O[Si](C)(C)C(C)(C)C)C[C@H](O[Si](C)(C)C(C)(C)C)/C=C\[C@H](C)[C@H](O[Si](C)(C)C(C)(C)C)[C@@H](C)CCCC[C@@H](O[Si](C)(C)C(C)(C)C)[C@@H]1C |  |  |  |  |  |  |  |  |  | ring closure, yield of all isomers ([1]; from C=C/C=C\[C@H](C)[C@H](O)[C@@H](C)[C@@H](CCCC[C@H](C)[C@@H](O[Si](C)(C)C(C)(C)C)[C@@H](C)/C=C\[C@H](C[C@H](O[Si](C)(C)C(C)(C)C)[C@H](C)/C=C/C=C\C(=O)O)O[Si](C)(C)C(C)(C)C)O[Si](C)(C)C(C)(C)C, 2,4,6-trichlorobenzoyl chloride / Et3N / DMAP, 2.0 mM): 76% |
| C=C/C=C\[C@H](C)[C@@H]1OC(=O)/C=C\C=C\[C@H](C)[C@@H](O[Si](C)(C)C(C)(C)C)C[C@H](O[Si](C)(C)C(C)(C)C)/C=C\[C@H](C)[C@H](O[Si](C)(C)C(C)(C)C)[C@H](C)C[C@@H](C)CC[C@@H](O[Si](C)(C)C(C)(C)C)C1C (stereo in doubt) |  |  |  |  |  |  |  |  |  | ring closure, yield of all isomers ([1]; from C=C/C=C\[C@H](C)[C@H](O)[C@@H](C)[C@@H](CC[C@H](C)C[C@@H](C)[C@@H](O[Si](C)(C)C(C)(C)C)[C@@H](C)/C=C\[C@H](C[C@H](O[Si](C)(C)C(C)(C)C)[C@@H](C)/C=C/C=C\C(=O)O)O[Si](C)(C)C(C)(C)C)O[Si](C)(C)C(C)(C)C, 2,4,6-trichlorobenzoyl chloride / Et3N / DMAP, 1.94 mM, 25.0 °C, 16.0 h): 78% |
| C=CC=CC(C)C1OC(=O)C=CC=CC(C)C(O)CC(O)C=CC(C)C(O)C(C)CC(C)CCC(O)C1C [Compound 100, 8(S),10(S),14(R),20(R)-Tetrahydroxy-7(S),13(S),15(R),17(S),21 (S)-pentamethyl-22(S)-(1(S)-methyl-penta-2,4-dienyl)-oxa-cyclodocosa-3(E),5(E),11(Z)-trien-2-one] | high nanomolar GI50 values | 2.5 fold | 2.5 fold | 1 ± 1% | > 50 µM | 0 ± 1% | >5000 (4) | >5000 (4) | >5000 (4) | GI50 ([2]; read-out: GI50 ± S.D., 1A9 parental cells, 72 h incubation): 0.31 ± 0.04 µM; GI50 ([3]; read-out: GI50 ± S.D., 1A9/Ptx10 (Phe270 −> Val), 72 h incubation): 0.78 ± 0.2 µM; GI50 ([4]; read-out: GI50 ± S.D., 1A9/Ptx22 (Ala364 −> Thr), 72 h incubation): 0.79 ± 0.56 µM |
| C=CC=CC(C)C1OC(=O)C=CC=CC(C)C(O)CC(O)C=CC(C)C(O)C(C)CC(C)CCC(O)C1C [Compound 108, 8(S),10(S),14(R),20(S)-Tetrahydroxy-7(S),13(S),15(R),17(S),21(S)-pentamethyl-22(S)-(1(S)-methyl-penta-2,4-dienyl)oxacyclodocosa-3(Z),5(E),11(Z)-trien-2-one] | mid micromolar GI50 values | 0.9 fold | 1.1 fold | 5 ± 1% | > 50 µM | 0 ± 1% | >5000 (4) | >5000 (4) | >5000 (4) | GI50 ([2]; Homo sapiens, Ovarian carcinoma cell, 72 h, read-out: GI50 ± S.D., 1A9 parental cells, 72 h incubation): 28 ± 1 µM; GI50 ([3]; Homo sapiens, 1A9/ptx-10, 72 h, read-out: GI50 ± S.D., 1A9/Ptx10 (Phe270 −> Val), 72 h incubation): 26 µM; GI50 ([4]; Homo sapiens, 1A9/ptx-22, 72 h, read-out: GI50 ± S.D., 1A9/Ptx22 (Ala364 −> Thr), 72 h incubation): 30 ± 1 µM |
| C=C/C=C\[C@H](C)[C@@H]1OC(=O)/C=C\C=C\[C@@H](C)[C@@H](O[Si](C)(C)C(C)(C)C)C[C@H](O[Si](C)(C)C(C)(C)C)/C=C\[C@H](C)[C@H](O[Si](C)(C)C(C)(C)C)[C@@H](C)C[C@@H](C)CC[C@H](O[Si](C)(C)C(C)(C)C)[C@@H]1C |  |  |  |  |  |  |  |  |  | ring closure, yield of all isomers ([1]; from C=C/C=C\[C@H](C)[C@H](O)[C@@H](C)[C@H](CC[C@H](C)C[C@H](C)[C@@H](O[Si](C)(C)C(C)(C)C)[C@@H](C)/C=C\[C@H](C[C@H](O[Si](C)(C)C(C)(C)C)[C@H](C)/C=C/C=C\C(=O)O)O[Si](C)(C)C(C)(C)C)O[Si](C)(C)C(C)(C)C, 2,4,6-trichlorobenzoyl chloride / Et3N / DMAP (Yamaguchi), 1.74 mM, 25.0 °C, 12.0 h): 78% |

— patent US7321046B2, “Analogs of dictyostatin, intermediates therefor and methods of synthesis thereof” (University of Pittsburgh, priority 2002, dated 2008)
